Measured values taken from PubChem BioAssay AID248 (DTP/NCI, 2004).
Several values for one entry are separate records, joined by “and”; a condition that tells them apart may be missing. Identical values can stand only once. Inconclusive results and toxic doses are left out. Rule as the data show it: active = T/C of 150% or more; inactive = T/C below 125%.

System: L1210 leukemia ip in BDF1 mice, survival T/C
Assay: NCI In Vivo Anticancer Drug Screen. Data for tumor model L1210 Leukemia (intraperitoneal) in B6D2F1 (BDF1) mice
Conditions: endpoint: mean survival time, higher = longer survival
Outline: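 In this screen, tumor-bearing mice given compound are compared to those given vehicle, and their survival values are reported as a treated-to-control quotient.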

[1] = dose: 25.0 mg/kg/injection, schedule: Q01DX009 (ip), vehicle: Klucel (hydroxypropylcellulose) (HPC)
[2] = dose: 50.0 mg/kg/injection, schedule: Q01DX009 (ip), vehicle: Klucel (hydroxypropylcellulose) (HPC)
[3] = dose: 75.0 mg/kg/injection, schedule: Q01DX001 (ip), vehicle: saline
[4] = dose: 100.0 mg/kg/injection, schedule: Q01DX001 (ip), vehicle: carboxymethylcellulose (CMC)
[5] = dose: 150.0 mg/kg/injection, schedule: Q01DX001 (ip), vehicle: saline
[6] = dose: 200.0 mg/kg/injection, schedule: Q01DX001 (ip), vehicle: carboxymethylcellulose (CMC)
[7] = dose: 400.0 mg/kg/injection, schedule: Q01DX001 (ip), vehicle: carboxymethylcellulose (CMC)
[8] = dose: 100.0 mg/kg/injection, schedule: Q01DX009 (ip), vehicle: Klucel (hydroxypropylcellulose) (HPC)
[9] = dose: 100.0 mg/kg/injection, schedule: Q04DX003 (ip), vehicle: Klucel (hydroxypropylcellulose) (HPC)
[10] = dose: 200.0 mg/kg/injection, schedule: Q01DX009 (ip), vehicle: Klucel (hydroxypropylcellulose) (HPC)
[11] = dose: 200.0 mg/kg/injection, schedule: Q04DX003 (ip), vehicle: Klucel (hydroxypropylcellulose) (HPC)
[12] = dose: 100.0 mg/kg/injection, schedule: Q01DX001 (ip), vehicle: saline
[13] = dose: 200.0 mg/kg/injection, schedule: Q01DX001 (ip), vehicle: saline
[14] = dose: 400.0 mg/kg/injection, schedule: Q01DX001 (ip), vehicle: saline
[15] = dose: 100.0 mg/kg/injection, schedule: Q04DX003 (ip), vehicle: saline with Tween-80
[16] = dose: 200.0 mg/kg/injection, schedule: Q04DX003 (ip), vehicle: saline with Tween-80
[17] = dose: 400.0 mg/kg/injection, schedule: Q04DX003 (ip), vehicle: saline with Tween-80
[18] = dose: 100.0 mg/kg/injection, schedule: Q04DX002 (ip), vehicle: Klucel (hydroxypropylcellulose) (HPC)
[19] = dose: 200.0 mg/kg/injection, schedule: Q04DX002 (ip), vehicle: Klucel (hydroxypropylcellulose) (HPC)
[20] = dose: 400.0 mg/kg/injection, schedule: Q04DX002 (ip), vehicle: Klucel (hydroxypropylcellulose) (HPC)

Measured: T/C

O=C1C=CC(=O)C(c2ccccc2)=C1
inactive: dose: 6.0 mg/kg/injection, schedule: Q04DX003 (ip), vehicle: Klucel (hydroxypropylcellulose) (HPC) 95 % of control | dose: 12.0 mg/kg/injection, schedule: Q01DX001 (ip), vehicle: saline 104 % of control | dose: 12.0 mg/kg/injection, schedule: Q01DX009 (ip), vehicle: Klucel (hydroxypropylcellulose) (HPC) 90 % of control | dose: 12.0 mg/kg/injection, schedule: Q04DX003 (ip), vehicle: Klucel (hydroxypropylcellulose) (HPC) 98 % of control | dose: 25.0 mg/kg/injection, schedule: Q01DX001 (ip), vehicle: saline 100 % of control | [1] 100 % of control | dose: 25.0 mg/kg/injection, schedule: Q04DX003 (ip), vehicle: Klucel (hydroxypropylcellulose) (HPC) 98 % of control | [2] 100 % of control

COc1cc2c(cc1OC)C1=[N+](CCC1)CC2
inactive: [3] 101 % of control | [4] 97 % of control | [5] 102 % of control | [6] 94 % of control | [7] 100 % of control

COc1ccc(C=C2C3C=CC2C2C(=O)OC(=O)C32)cc1 (stereo not given)
inactive: [8] 101 % of control | [9] 99 % of control | [10] 97 % of control | [11] 99 % of control | dose: 400.0 mg/kg/injection, schedule: Q04DX003 (ip), vehicle: Klucel (hydroxypropylcellulose) (HPC) 89 % of control

Cc1cnc2c(N)nn(C)c2n1
inactive: dose: 50.0 mg/kg/injection, schedule: Q01DX009 (ip), vehicle: saline 102 % of control | dose: 100.0 mg/kg/injection, schedule: Q01DX009 (ip), vehicle: saline 110 % of control | dose: 100.0 mg/kg/injection, schedule: Q04DX003 (ip), vehicle: alcohol 102 % of control | dose: 200.0 mg/kg/injection, schedule: Q04DX003 (ip), vehicle: alcohol 98 % of control

CCCCCCCC[Si](C)(C)C
inactive: [12] 100 % of control | [13] 97 % of control | [14] 115 % of control

CS(=O)(=O)OCC1(c2ccccc2)CCCCC1
inactive: dose: 100.0 mg/kg/injection, schedule: Q01DX001 (sc), vehicle: olive oil, sesame oil, peanut oil 101 % of control | dose: 200.0 mg/kg/injection, schedule: Q01DX001 (sc), vehicle: olive oil, sesame oil, peanut oil 103 % of control | dose: 400.0 mg/kg/injection, schedule: Q01DX001 (sc), vehicle: olive oil, sesame oil, peanut oil 108 % of control

O=[N+]([O-])c1ccc(-c2nnc(-c3ccccc3O)o2)cc1
inactive: dose: 50.0 mg/kg/injection, schedule: Q04DX002 (ip), vehicle: saline with Tween-80 92 % of control | dose: 100.0 mg/kg/injection, schedule: Q04DX002 (ip), vehicle: saline with Tween-80 89 % of control | dose: 200.0 mg/kg/injection, schedule: Q04DX002 (ip), vehicle: saline with Tween-80 89 % of control | dose: 400.0 mg/kg/injection, schedule: Q04DX002 (ip), vehicle: saline with Tween-80 89 % of control

c1ccc(NP2(Nc3ccccc3)=NP(Nc3ccccc3)(Nc3ccccc3)=NP(Nc3ccccc3)(Nc3ccccc3)=N2)cc1
inactive: [3] 96 % of control | [9] 99 % of control | [5] 101 % of control | [11] 89 % of control | dose: 300.0 mg/kg/injection, schedule: Q01DX001 (ip), vehicle: saline 91 % of control

NC(=O)n1ccc(CC(O)(C(F)(F)F)C(F)(F)F)n1
inactive: dose: 100.0 mg/kg/injection, schedule: Q01DX001 (ip), vehicle: saline with Tween-80 96 % of control | dose: 200.0 mg/kg/injection, schedule: Q01DX001 (ip), vehicle: saline with Tween-80 96 % of control | dose: 400.0 mg/kg/injection, schedule: Q01DX001 (ip), vehicle: saline with Tween-80 96 % of control

Nc1ncnc2c1ncn2C1OC(COP(=O)(O)OP(=O)(O)OP(=O)(O)O)C(O)C1O (stereo not given)
inactive: dose: 80.0 mg/kg/injection, schedule: Q01DX Z (ip), vehicle: saline 87 % of control | dose: 120.0 mg/kg/injection, schedule: Q01DX Z (ip), vehicle: saline 87 % of control | dose: 180.0 mg/kg/injection, schedule: Q01DX Z (ip), vehicle: saline 95 % of control | dose: 270.0 mg/kg/injection, schedule: Q01DX Z (ip), vehicle: saline 98 % of control

CCOC(=O)Cc1ccc2ccccc2c1
inactive: [15] 100 % of control | [16] 96 % of control | [17] 104 % of control

CCN(CC)Cc1ncccc1O
inactive: [2] 106 % of control | [8] 106 % of control | [9] 105 % of control | [10] 93 % of control | [11] 104 % of control

O=C(Nc1ccc(Cl)c(Cl)c1)c1ccc2c(c1)C(=O)OC2=O
inactive: dose: 100.0 mg/kg/injection, schedule: Q01DX009 (ip), vehicle: saline with Tween-80 106 % of control | dose: 200.0 mg/kg/injection, schedule: Q01DX009 (ip), vehicle: saline with Tween-80 106 % of control | dose: 400.0 mg/kg/injection, schedule: Q01DX009 (ip), vehicle: saline with Tween-80 106 % of control

CCC(O)C(c1ccccc1)(c1ccccc1)C(C)CN(C)C (stereo not given)
inactive: [12] 100 % of control | [13] 97 % of control

NCCN=C(N)C(N)=NCCN
inactive: dose: 100.0 mg/kg/injection, schedule: Q04DX002 (ip), vehicle: saline 100 % of control | dose: 200.0 mg/kg/injection, schedule: Q04DX002 (ip), vehicle: saline 103 % of control | dose: 400.0 mg/kg/injection, schedule: Q04DX002 (ip), vehicle: saline 110 % of control

O=c1cc(NCc2cccc3ccc(Cl)cc23)[nH]c(=O)[nH]1
inactive: dose: 50.0 mg/kg/injection, schedule: Q01DX001 (ip), vehicle: Klucel (hydroxypropylcellulose) (HPC) 92 % of control | dose: 100.0 mg/kg/injection, schedule: Q01DX001 (ip), vehicle: Klucel (hydroxypropylcellulose) (HPC) 88 % of control | dose: 200.0 mg/kg/injection, schedule: Q01DX001 (ip), vehicle: Klucel (hydroxypropylcellulose) (HPC) 87 % of control

CN1C(=O)C(Br)=C(Br)C1(O)c1cccnc1 (stereo not given)
inactive: dose: 50.0 mg/kg/injection, schedule: Q01DX001 (ip), vehicle: saline 104 % of control | [12] 104 % of control | [13] 95 % of control | [14] 98 % of control

O=C1CSSCC(=O)NCCN1
inactive: [18] 93 % of control and 96 % of control | [19] 93 % of control and 96 % of control | [20] 93 % of control and 96 % of control

C[N+](C)(C)c1ccc(N=C=S)cc1
inactive: dose: 12.5 mg/kg/injection, schedule: Q01DX009 (ip), vehicle: Klucel (hydroxypropylcellulose) (HPC) 94 % of control | [1] 105 % of control | [2] 103 % of control

CCCCN1C(c2ccccc2)=CN(Cc2ccccc2)C=C1c1ccccc1
inactive: [18] 106 % of control | [19] 110 % of control | [20] 103 % of control

OCCOCC(F)(F)F
inactive: [12] 97 % of control | [13] 100 % of control | [14] 105 % of control | dose: 400.0 mg/kg/injection, schedule: Q01DX015 (ip), vehicle: saline 96 % of control | dose: 800.0 mg/kg/injection, schedule: Q01DX001 (ip), vehicle: saline 105 % of control | dose: 800.0 mg/kg/injection, schedule: Q01DX015 (ip), vehicle: saline 101 % of control | dose: 1600.0 mg/kg/injection, schedule: Q01DX001 (ip), vehicle: saline 108 % of control

Cc1cccc(Sc2cccc3c2C(C)(O)c2c(Sc4cccc(C)c4)cccc2C3(C)O)c1 (stereo not given)
inactive: [15] 96 % of control | [16] 95 % of control | [17] 96 % of control

O=C(O)C1CC(Br)C(Br)CC1C(=O)Nc1cccc2ccccc12 (stereo not given)
inactive: [18] 100 % of control | [19] 92 % of control | [20] 95 % of control

Cc1ccc(C(=O)c2ccccc2N)cc1C
inactive: [4] 100 % of control | [6] 116 % of control | [7] 102 % of control

COc1ccc2c(c1)CCC(CC(C)=O)C2=O (stereo not given)
inactive: dose: 100.0 mg/kg/injection, schedule: Q04DX003 (ip), vehicle: saline sonified 99 % of control | dose: 200.0 mg/kg/injection, schedule: Q04DX003 (ip), vehicle: saline sonified 90 % of control | dose: 400.0 mg/kg/injection, schedule: Q04DX003 (ip), vehicle: saline sonified 89 % of control
